Test results from patent US20240390338A1, “METHODS FOR TREATING NEUROGENERATIVE DISEASES” (PTC THERAPEUTICS, INC., priority 2021, published 2024).

Each compound was assayed on MAPT 3R mRNA (assay: RT-qPCR Assay to Quantify MAPT 3R mRNA in Cells). Settings: cells incubated with compound 24 h; 7-point concentration curve; MAPT minigene 3R RT-qPCR with GAPDH assay; EC2X interpolated from dose response curve.
Format: cell-based
Experimental: RT-qPCR Assay to Quantify MAPT 3R mRNA in Cells
Test compounds were serially diluted 3.16-fold in 100% DMSO to generate a 7-point concentration curve. Aliquots of 0.5 μL of diluted compounds were transferred to a 96-well flat bottom plate by a liquid handler. An aliquot of 0.5 μL DMSO was also transferred to separate wells and used as controls. Duplicate samples were set up for each compound concentration and for the DMSO control.
Cells were thawed and incubated in cell culture media (DMEM, 10% FBS, and 1% antibiotic cocktail) for 72 h. Cells were trypsinized, counted, and re-suspended to a concentration of 200,000 cells/mL in cell culture media. A 100 μL aliquot of the cell suspensions were plated at 20,000 cells per well in the compound containing 96 well microtiter plate and incubated for in a cell culture incubator (37° C., 5% CO2, 100% relative humidity).
After 24 h, media was aspirated from the cells and 20 μL of the RCL2 lysis buffer (10 mM Tris-HCL pH 7.4, 150 mM NaCl, 0.33% IGEPAL® CA-630) was added to each well and incubated at RT for 1 min. Chilled nuclease free water (140 μL per well) was added and the plates were immediately transferred on ice. After 1 min on ice, plates were frozen at −80° C. overnight.
Preparation of RT-qPCR Reaction Mixture:
An aliquot of 4 μL/well of the cell lysates was transferred using the liquid handler to the Armadillo 384-Well PCR plate containing 6 μL/well of the RT-qPCR reaction mixture that was prepared as detailed above. The plates were then sealed with MicroAmp™ Optical Adhesive Film followed by spinning down for 1 min and placed in the CFX384 thermocycler (BioRad).
The RT-qPCR was carried out at the following temperatures for the indicated time: • Step 1: 48° C. (30 min) • Step 2: 95° C. (10 min) • Step 3: 95° C. (15 sec) • Step 4: 60° C. (1 min); then, repeated Steps 3 and 4 for a total of 40 cycles.
The percent exon 4 skipping was calculated for each dose of compound treatment using Equations 1 and 2.
Data were fit to a dose response curve and the EC2X was interpolated using XLfit® statistical and curve fitting package.
An EC2X value between >1000 nM and ≤1500 nM is indicated by two stars (**). An EC2X value between >500 nM and ≤1000 nM is indicated by three stars (***). An EC2X value between >50 nM and ≤500 nM is indicated by four stars (****). An EC2X value ≤50 nM is indicated by five stars (*****).

Q: Which EC (2-fold increase) does the source give for `CSC[C@H](N)Cc1sc2c(NCc3ccco3)cc(Cl)nc2c1C` [Cpd 104, 2-[(2R)-2-amino-3-(methylsulfanyl)propyl]-5-chloro-N-[(furan-2-yl)methyl]-3-methylthieno[3,2-b]pyridin-7-amine] here?
A: ≤ 0.05 µM

Q: `Cc1c(C[C@@H](N)CC#N)sc2c(NCc3cccs3)cc(Cl)nc12` [Cpd 105, (3S)-3-amino-4-(5-chloro-3-methyl-7-{[(thiophen-2-yl)methyl]amino}thieno[3,2-b]pyridin-2-yl)butanenitrile] was tested. Which EC (2-fold increase) did it give?
A: 0.05 to 0.5 µM

Q: With `N#CC[C@H](N)Cc1sc2c(NCc3cccs3)cc(Cl)nc2c1Cl` [Cpd 106, (3S)-3-amino-4-(3,5-dichloro-7-{[(thiophen-2-yl)methyl]amino}thieno[3,2-b]pyridin-2-yl)butanenitrile] as the compound, how does the EC (2-fold increase) read?
A: 0.05 to 0.5 µM

Q: Which EC (2-fold increase) does the source give for `N[C@H](Cc1sc2c(NCc3cccs3)cc(Cl)nc2c1Br)CC(F)F` [Cpd 107, 2-[(2S)-2-amino-4,4-difluorobutyl]-3-bromo-5-chloro-N-[(thiophen-2-yl)methyl]thieno[3,2-b]pyridin-7-amine] here?
A: 0.05 to 0.5 µM

Q: `Cc1c(C[C@@H](N)CS(C)(=O)=O)sc2c(NCc3ccco3)cc(Cl)nc12` [Cpd 108, 2-[(2R)-2-amino-3-(methanesulfonyl)propyl]-5-chloro-N-[(furan-2-yl)methyl]-3-methylthieno[3,2-b]pyridin-7-amine] was tested. Which EC (2-fold increase) did it give?
A: 0.05 to 0.5 µM

Q: `C[C@H](N)Cc1sc2c(NCc3ccco3)cc(Cl)nc2c1C#N` [Cpd 109, 2-[(2S)-2-aminopropyl]-5-chloro-7-{[(furan-2-yl)methyl]amino}thieno[3,2-b]pyridine-3-carbonitrile] was tested. Which EC (2-fold increase) did it give?
A: ≤ 0.05 µM

Q: How did the EC (2-fold increase) turn out when `CS(=O)(=O)C[C@H](N)Cc1sc2c(NCc3ccco3)cc(Cl)nc2c1Cl` [Cpd 113, 2-[(2R)-2-amino-3-(methanesulfonyl)propyl]-3,5-dichloro-N-[(furan-2-yl)methyl]thieno[3,2-b]pyridin-7-amine] was run?
A: 0.05 to 0.5 µM

Q: With `CSC[C@H](N)Cc1sc2c(NCc3ccco3)cc(Cl)nc2c1Cl` [Cpd 114, 2-[(2R)-2-amino-3-(methylsulfanyl)propyl]-3,5-dichloro-N-[(furan-2-yl)methyl]thieno[3,2-b]pyridin-7-amine] as the compound, how does the EC (2-fold increase) read?
A: ≤ 0.05 µM

Q: Which EC (2-fold increase) does the source give for `Cc1c(C[C@@H](N)C(=O)O)sc2c(NCc3ccco3)cc(Cl)nc12` [Cpd 115, 3-(5-chloro-7-{[(furan-2-yl)methyl]amino}-3-methylthieno[3,2-b]pyridin-2-yl)-D-alanine] here?
A: ≤ 0.05 µM

Q: With `Cc1c(C[C@@H](N)C(=O)N(C)C)sc2c(NCc3ccco3)cc(Cl)nc12` [Cpd 116, 3-(5-chloro-7-{[(furan-2-yl)methyl]amino}-3-methylthieno[3,2-b]pyridin-2-yl)-N,N-dimethyl-D-alaninamide] as the compound, how does the EC (2-fold increase) read?
A: 0.05 to 0.5 µM

Q: `CS(=O)(=O)C[C@H](N)Cc1sc2c(NCc3ccco3)cc(Cl)nc2c1Br` [Cpd 117, 2-[(2R)-2-amino-3-(methanesulfonyl)propyl]-3-bromo-5-chloro-N-[(furan-2-yl)methyl]thieno[3,2-b]pyridin-7-amine] was tested. Which EC (2-fold increase) did it give?
A: 0.05 to 0.5 µM

Q: Which EC (2-fold increase) does the source give for `CSC[C@H](N)Cc1sc2c(NCc3ccco3)cc(Cl)nc2c1Br` [Cpd 118, 2-[(2R)-2-amino-3-(methylsulfanyl)propyl]-3-bromo-5-chloro-N-[(furan-2-yl)methyl]thieno[3,2-b]pyridin-7-amine] here?
A: ≤ 0.05 µM

Q: With `N[C@H](Cc1sc2c(NCc3ccco3)cc(Cl)nc2c1Cl)C(=O)Nc1ccccc1F` [Cpd 120, 3-(3,5-dichloro-7-{[(furan-2-yl)methyl]amino}thieno[3,2-b]pyridin-2-yl)-N-(2-fluorophenyl)-D-alaninamide] as the compound, how does the EC (2-fold increase) read?
A: 0.05 to 0.5 µM

Q: With `N[C@H](Cc1sc2c(NCc3ccco3)cc(Cl)nc2c1Cl)C(=O)Nc1ccccc1` [Cpd 122, 3-(3,5-dichloro-7-{[(furan-2-yl)methyl]amino}thieno[3,2-b]pyridin-2-yl)-N-phenyl-D-alaninamide] as the compound, how does the EC (2-fold increase) read?
A: 0.05 to 0.5 µM

Q: Which EC (2-fold increase) does the source give for `C#C[C@H](N)Cc1sc2c(NCc3ccco3)cc(Cl)nc2c1C` [Cpd 123, 2-[(2R)-2-aminobut-3-yn-1-yl]-3-methyl-5-chloro-N-[(furan-2-yl)methyl]thieno[3,2-b]pyridin-7-amine] here?
A: ≤ 0.05 µM
